Test results as given in ChEMBL document CHEMBL1201862, “PubChem BioAssay data set” (2004).
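Compound exposure: 48 hours, 5 concentrations, 96-well plates. Abbreviation: GI50, concentration required for 50% inhibition of growth.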 Active and inactive are the calls of the source. Rule as the data show it: active = GI50 up to about 1.1 µM and inactive = higher.

Assays:
Experiment in all cases: inhibition of tumour cell growth, NCI panel, 48 h
UO-31 = tested on: UO-31
RPMI-8226 = tested on: RPMI-8226
PC-3 = tested on: PC-3
CAKI-1 = tested on: CAKI-1
SK-MEL-5 = tested on: SK-MEL-5
ACHN = tested on: ACHN
KM12 = tested on: KM12
SN12C = tested on: SN12C
HOP-62 = tested on: HOP-62
M14 = tested on: M14
IGROV-1 = tested on: IGROV-1
NCI/ADR-RES = tested on: NCI/ADR-RES
SNB-19 = tested on: SNB-19
SK-MEL-2 = tested on: SK-MEL-2
EKVX = tested on: EKVX
Hs-578T = tested on: Hs-578T
BT-549 = tested on: BT-549
MCF7 = tested on: MCF7
A549 = tested on: A549
UACC-257 = tested on: UACC-257
HL-60 = tested on: HL-60
SR = tested on: SR
OVCAR-5 = tested on: OVCAR-5
HCC 2998 = tested on: HCC 2998
RXF 393 = tested on: RXF 393
MDA-MB-231 = tested on: MDA-MB-231
T47D = tested on: T47D
COLO 205 = tested on: COLO 205
CCRF-CEM = tested on: CCRF-CEM
Malme-3M = tested on: Malme-3M
K562 = tested on: K562
NCI-H522 = tested on: NCI-H522
786-0 = tested on: 786-0
NCI-H226 = tested on: NCI-H226
SK-MEL-28 = tested on: SK-MEL-28
NCI-H23 = tested on: NCI-H23
SF-268 = tested on: SF-268
DU-145 = tested on: DU-145
A498 = tested on: A498
OVCAR-3 = tested on: OVCAR-3
HOP-92 = tested on: HOP-92
HCT-116 = tested on: HCT-116
U-251 = tested on: U-251
LOX IMVI = tested on: LOX IMVI
UACC-62 = tested on: UACC-62
MOLT-4 = tested on: MOLT-4
NCI-H460 = tested on: NCI-H460
SW-620 = tested on: SW-620
OVCAR-8 = tested on: OVCAR-8
SF-539 = tested on: SF-539
TK-10 = tested on: TK-10
MDA-N = tested on: MDA-N
HT-29 = tested on: HT-29
SNB-75 = tested on: SNB-75
MDA-MB-435 = tested on: MDA-MB-435
OVCAR-4 = tested on: OVCAR-4
SF-295 = tested on: SF-295
HCT-15 = tested on: HCT-15
SK-OV-3 = tested on: SK-OV-3

Measured: GI50

O=c1ccc2c(Cl)cccc2o1
inactive: UO-31 > 100 µM | RPMI-8226 > 100 µM | PC-3 > 100 µM | CAKI-1 > 100 µM | SK-MEL-5 > 100 µM | ACHN > 100 µM | KM12 > 100 µM | SN12C > 100 µM | HOP-62 > 100 µM | M14 > 100 µM | IGROV-1 > 100 µM | NCI/ADR-RES > 100 µM | SNB-19 > 100 µM | SK-MEL-2 > 100 µM | EKVX 58.3 µM | Hs-578T 75.5 µM | BT-549 > 100 µM | MCF7 > 100 µM | A549 > 100 µM | UACC-257 > 100 µM | HL-60 > 100 µM | SR > 100 µM | OVCAR-5 > 100 µM | HCC 2998 3.74 µM | RXF 393 > 100 µM | MDA-MB-231 > 100 µM | T47D 46.7 µM | COLO 205 > 100 µM | CCRF-CEM > 100 µM | Malme-3M > 100 µM | K562 > 100 µM | NCI-H522 > 100 µM | 786-0 > 10 µM | NCI-H226 > 100 µM | SK-MEL-28 > 100 µM | NCI-H23 > 100 µM | SF-268 > 100 µM | DU-145 > 100 µM | A498 > 100 µM | OVCAR-3 > 100 µM | HOP-92 > 100 µM | HCT-116 > 100 µM | U-251 > 100 µM | LOX IMVI > 100 µM | UACC-62 > 100 µM | MOLT-4 > 100 µM | NCI-H460 > 100 µM | SW-620 > 100 µM | OVCAR-8 > 100 µM | SF-539 > 100 µM | TK-10 > 100 µM | MDA-N > 100 µM | HT-29 > 10 µM | SNB-75 > 100 µM | MDA-MB-435 > 100 µM | OVCAR-4 > 100 µM | SF-295 > 100 µM

CCCCCNC(=O)OC1CCn2c1nc1c2C(=O)C(C)=C(N2CC2)C1=O (stereo not drawn)
active: PC-3 1.05 µM | SK-MEL-5 0.568 µM | ACHN 0.548 µM | MCF7 0.453 µM | A549 0.526 µM | HCC 2998 0.311 µM | RXF 393 0.543 µM | NCI-H522 0.769 µM | 786-0 0.455 µM | SF-268 0.946 µM | DU-145 0.351 µM | LOX IMVI 0.229 µM | NCI-H460 0.218 µM | SW-620 0.492 µM | HT-29 0.593 µM
1.92 µM: HCT-15
inactive: UO-31 1.83 µM | RPMI-8226 2.4 µM | CAKI-1 1.2 µM | KM12 1.64 µM | SN12C 1.43 µM | M14 1.45 µM | IGROV-1 1.37 µM | NCI/ADR-RES 2.56 µM | SNB-19 2.9 µM | SK-MEL-2 1.63 µM | Hs-578T 2.32 µM | BT-549 1.67 µM | UACC-257 1.67 µM | HL-60 6.05 µM | SR 20.7 µM | OVCAR-5 3.05 µM | MDA-MB-231 2.01 µM | T47D 3.23 µM | COLO 205 1.41 µM | CCRF-CEM 26.5 µM | Malme-3M 2.19 µM | K562 1.67 µM | NCI-H226 2 µM | SK-MEL-28 1.41 µM | NCI-H23 1.24 µM | A498 1.75 µM | OVCAR-3 1.79 µM | HOP-92 21.4 µM | HCT-116 1.24 µM | U-251 1.67 µM | UACC-62 1.75 µM | MOLT-4 10.7 µM | OVCAR-8 1.46 µM | SF-539 2 µM | TK-10 4.83 µM | MDA-N 1.5 µM | SNB-75 1.22 µM | MDA-MB-435 1.62 µM | OVCAR-4 1.3 µM | SF-295 1.2 µM

CC(C)(CCC(C)(C)N1OC1c1ccccc1)N1OC1c1ccccc1 (stereo not drawn)
28.6 µM: HCT-15
inactive: UO-31 20 µM | RPMI-8226 28.9 µM | PC-3 19.9 µM | CAKI-1 23.4 µM | SK-MEL-5 17.5 µM | ACHN 19.8 µM | KM12 57.1 µM | SN12C > 100 µM | NCI/ADR-RES 58.6 µM | SK-OV-3 62.8 µM | SNB-19 47.5 µM | SK-MEL-2 21.5 µM | Hs-578T 36.2 µM | BT-549 38.3 µM | MCF7 28.7 µM | A549 11.6 µM | UACC-257 25.1 µM | HL-60 21 µM | SR 14.1 µM | HCC 2998 31.9 µM | MDA-MB-231 26.4 µM | T47D 41.1 µM | COLO 205 47.2 µM | CCRF-CEM 9.31 µM | Malme-3M > 100 µM | K562 13.4 µM | NCI-H522 7.16 µM | 786-0 54.1 µM | NCI-H226 76.9 µM | SK-MEL-28 > 100 µM | NCI-H23 55.3 µM | SF-268 95.1 µM | DU-145 88.7 µM | A498 32 µM | HOP-92 33.4 µM | HCT-116 56.8 µM | U-251 72.9 µM | LOX IMVI 26.4 µM | UACC-62 > 100 µM | NCI-H460 33 µM | SW-620 78 µM | OVCAR-8 > 100 µM | SF-539 22.4 µM | TK-10 22.8 µM | MDA-N 39.9 µM | HT-29 54.7 µM | SNB-75 > 100 µM | MDA-MB-435 32.8 µM | OVCAR-4 86.3 µM | SF-295 44.5 µM

C=CC[C@]12C[C@@H](C(=O)OC)N(C(=O)OC)[C@H]1N(S(=O)(=O)c1ccccc1)c1ccccc12
40.1 µM: HCT-15
inactive: UO-31 56 µM | RPMI-8226 44.3 µM | PC-3 34.6 µM | CAKI-1 > 100 µM | SK-MEL-5 58.5 µM | ACHN 95.1 µM | KM12 85.5 µM | SN12C 89.7 µM | HOP-62 > 100 µM | IGROV-1 43.1 µM | NCI/ADR-RES 68.2 µM | SK-OV-3 35.6 µM | SNB-19 > 100 µM | SK-MEL-2 42.3 µM | EKVX 31.2 µM | Hs-578T 42.9 µM | BT-549 > 100 µM | MCF7 41.3 µM | A549 88.5 µM | UACC-257 45.7 µM | HL-60 29.6 µM | SR 38.4 µM | OVCAR-5 31.4 µM | HCC 2998 44.2 µM | RXF 393 26 µM | MDA-MB-231 36.2 µM | T47D 30.9 µM | CCRF-CEM 82.6 µM | Malme-3M 91.8 µM | K562 41.1 µM | NCI-H522 42.3 µM | 786-0 > 100 µM | NCI-H226 > 100 µM | SK-MEL-28 > 100 µM | NCI-H23 34.1 µM | SF-268 78.2 µM | DU-145 33.5 µM | A498 81.1 µM | OVCAR-3 87.9 µM | HOP-92 42.6 µM | HCT-116 62.2 µM | U-251 61.9 µM | MOLT-4 33 µM | NCI-H460 73.8 µM | SW-620 > 100 µM | OVCAR-8 > 100 µM | SF-539 > 100 µM | TK-10 > 100 µM | MDA-N 41.8 µM | HT-29 > 100 µM | SNB-75 21.5 µM | MDA-MB-435 28.2 µM | OVCAR-4 47.1 µM

C/C(=N\NC(=S)N(C)C)c1nc2cccnc2[nH]1
inactive: RPMI-8226 2.07 µM | SN12C 1.16 µM | Hs-578T 1.22 µM | UACC-257 2.01 µM | Malme-3M 1.38 µM | K562 2.16 µM | NCI-H522 1.53 µM | A498 8.28 µM | TK-10 2.1 µM | MDA-N 1.27 µM | SNB-75 3.18 µM
active: UO-31 0.348 µM | PC-3 0.698 µM | CAKI-1 0.501 µM | SK-MEL-5 0.387 µM | ACHN 0.618 µM | HOP-62 0.54 µM | M14 0.547 µM | IGROV-1 0.804 µM | NCI/ADR-RES 0.449 µM | SK-OV-3 0.413 µM | SNB-19 1.02 µM | SK-MEL-2 0.583 µM | EKVX 0.475 µM | BT-549 0.0398 µM | MCF7 1.05 µM | A549 0.792 µM | HL-60 0.323 µM | SR 0.679 µM | OVCAR-5 0.504 µM | HCC 2998 0.71 µM | RXF 393 0.596 µM | MDA-MB-231 0.875 µM | T47D 0.475 µM | COLO 205 0.325 µM | CCRF-CEM 0.379 µM | 786-0 0.597 µM | NCI-H226 0.399 µM | SK-MEL-28 1.03 µM | SF-268 0.59 µM | DU-145 0.504 µM | HOP-92 0.275 µM | HCT-116 0.893 µM | U-251 0.494 µM | LOX IMVI 0.673 µM | UACC-62 0.396 µM | MOLT-4 0.406 µM | NCI-H460 0.478 µM | SW-620 0.883 µM | OVCAR-8 0.982 µM | SF-539 0.536 µM | HT-29 0.548 µM | MDA-MB-435 0.762 µM | OVCAR-4 0.499 µM
0.443 µM: HCT-15
